The record followed here is US9682141B2, “Combination of kinase inhibitors and uses thereof” (INTELLIKINE LLC, priority 2011, dated 2017).

Format in all cases: biochemical
One assay concerns the target PI3K δ (Homo sapiens (Human), UniProt O00329). In words: PI 3-Kinase (human) HTRF assay, p110δ/p85α.
A further assay addresses PI3K γ (Homo sapiens (Human), UniProt P48736). Nature of the assay: PI 3-Kinase (human) HTRF assay, p110γ.
Another assay concerns the target PI3K α (Homo sapiens (Human), UniProt P42336). In words: PI 3-Kinase (human) HTRF assay, p110α/p85α.
Another assay addresses PI3K β (Homo sapiens (Human), UniProt P42338). In words: PI 3-Kinase (human) HTRF assay, p110β/p85α.
A short description of assay [1]: PI 3-Kinase (human) HTRF assay, p110δ/p85α. Particulars: read-out: PI3K γ IC50.

Read-outs that look alike come from different tables or passages of the source.

Chain of PI3K δ (O00329 whole entry): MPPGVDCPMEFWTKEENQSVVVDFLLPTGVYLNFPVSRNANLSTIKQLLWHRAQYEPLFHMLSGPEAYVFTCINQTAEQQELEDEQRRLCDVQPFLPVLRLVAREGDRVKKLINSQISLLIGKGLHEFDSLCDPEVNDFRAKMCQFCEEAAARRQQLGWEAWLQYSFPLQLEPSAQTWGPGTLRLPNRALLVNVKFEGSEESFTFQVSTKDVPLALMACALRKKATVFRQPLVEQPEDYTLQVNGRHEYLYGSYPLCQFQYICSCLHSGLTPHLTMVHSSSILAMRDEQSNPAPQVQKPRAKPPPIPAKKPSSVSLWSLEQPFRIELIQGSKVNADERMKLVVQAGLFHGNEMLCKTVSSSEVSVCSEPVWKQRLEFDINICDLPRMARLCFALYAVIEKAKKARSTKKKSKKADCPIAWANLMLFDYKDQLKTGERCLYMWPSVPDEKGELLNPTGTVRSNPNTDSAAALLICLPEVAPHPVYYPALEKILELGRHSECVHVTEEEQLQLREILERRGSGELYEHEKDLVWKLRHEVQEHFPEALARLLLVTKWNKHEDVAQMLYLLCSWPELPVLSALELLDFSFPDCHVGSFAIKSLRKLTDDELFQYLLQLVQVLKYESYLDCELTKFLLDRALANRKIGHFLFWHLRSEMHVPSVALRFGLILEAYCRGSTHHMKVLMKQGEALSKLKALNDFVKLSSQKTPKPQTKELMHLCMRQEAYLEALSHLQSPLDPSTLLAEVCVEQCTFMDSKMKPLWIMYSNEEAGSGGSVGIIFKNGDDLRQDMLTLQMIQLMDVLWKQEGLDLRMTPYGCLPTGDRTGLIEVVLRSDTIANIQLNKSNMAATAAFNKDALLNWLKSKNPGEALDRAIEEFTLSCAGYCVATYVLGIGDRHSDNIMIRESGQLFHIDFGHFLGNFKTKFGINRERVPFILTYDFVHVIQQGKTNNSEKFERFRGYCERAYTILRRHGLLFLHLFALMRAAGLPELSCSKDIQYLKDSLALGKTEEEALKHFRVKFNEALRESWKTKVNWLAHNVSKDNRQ
Chain of PI3K δ (P27986 whole entry partner): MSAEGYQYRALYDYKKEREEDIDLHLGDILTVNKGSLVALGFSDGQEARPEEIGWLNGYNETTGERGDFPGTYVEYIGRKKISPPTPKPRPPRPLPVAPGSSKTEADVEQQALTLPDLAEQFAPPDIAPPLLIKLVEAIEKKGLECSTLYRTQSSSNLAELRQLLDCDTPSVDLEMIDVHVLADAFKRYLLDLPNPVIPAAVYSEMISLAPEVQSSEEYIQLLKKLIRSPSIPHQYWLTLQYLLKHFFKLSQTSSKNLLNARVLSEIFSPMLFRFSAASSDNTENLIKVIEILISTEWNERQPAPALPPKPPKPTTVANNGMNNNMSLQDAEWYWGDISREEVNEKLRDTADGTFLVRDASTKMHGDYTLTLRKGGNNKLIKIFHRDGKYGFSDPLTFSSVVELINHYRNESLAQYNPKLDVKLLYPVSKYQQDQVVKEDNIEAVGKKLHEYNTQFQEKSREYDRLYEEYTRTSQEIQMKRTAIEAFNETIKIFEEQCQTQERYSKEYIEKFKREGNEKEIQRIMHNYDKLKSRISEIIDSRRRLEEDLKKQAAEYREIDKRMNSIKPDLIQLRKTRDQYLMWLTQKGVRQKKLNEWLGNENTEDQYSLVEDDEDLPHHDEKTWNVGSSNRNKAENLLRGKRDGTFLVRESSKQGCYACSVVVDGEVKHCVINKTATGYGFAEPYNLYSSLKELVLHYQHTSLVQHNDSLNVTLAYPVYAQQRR
Chain of PI3K α (P42336 whole entry): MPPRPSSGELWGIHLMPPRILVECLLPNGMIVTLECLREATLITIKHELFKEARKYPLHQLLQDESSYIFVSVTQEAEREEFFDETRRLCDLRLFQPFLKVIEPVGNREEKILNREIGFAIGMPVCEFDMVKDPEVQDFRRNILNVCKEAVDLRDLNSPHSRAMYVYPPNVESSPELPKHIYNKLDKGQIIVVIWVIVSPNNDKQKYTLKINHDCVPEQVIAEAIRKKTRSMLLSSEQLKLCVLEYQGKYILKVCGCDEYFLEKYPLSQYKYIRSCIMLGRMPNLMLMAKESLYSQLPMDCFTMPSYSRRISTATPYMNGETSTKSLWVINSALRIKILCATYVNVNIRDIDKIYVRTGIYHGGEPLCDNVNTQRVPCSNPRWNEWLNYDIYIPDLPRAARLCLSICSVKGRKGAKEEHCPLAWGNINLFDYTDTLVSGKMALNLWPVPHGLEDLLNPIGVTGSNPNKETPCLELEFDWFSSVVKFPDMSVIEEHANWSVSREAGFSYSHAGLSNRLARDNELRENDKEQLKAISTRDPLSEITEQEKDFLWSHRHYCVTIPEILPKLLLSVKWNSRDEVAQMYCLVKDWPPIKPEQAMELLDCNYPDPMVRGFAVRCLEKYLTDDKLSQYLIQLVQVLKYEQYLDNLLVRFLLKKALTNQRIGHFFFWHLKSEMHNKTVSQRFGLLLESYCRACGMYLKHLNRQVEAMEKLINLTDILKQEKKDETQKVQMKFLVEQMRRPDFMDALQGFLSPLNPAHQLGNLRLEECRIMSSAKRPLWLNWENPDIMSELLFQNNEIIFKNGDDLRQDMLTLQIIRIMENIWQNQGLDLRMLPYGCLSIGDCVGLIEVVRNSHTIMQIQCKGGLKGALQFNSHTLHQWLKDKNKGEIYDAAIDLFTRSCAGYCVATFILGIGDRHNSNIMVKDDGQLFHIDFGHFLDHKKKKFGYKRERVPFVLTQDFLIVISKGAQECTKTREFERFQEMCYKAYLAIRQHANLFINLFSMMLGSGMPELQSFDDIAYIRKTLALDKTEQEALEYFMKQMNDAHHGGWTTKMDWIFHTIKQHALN
Chain of PI3K α (P27986 whole entry partner): as the sequence (P27986 whole entry partner) above
Chain of PI3K β (P42338 whole entry): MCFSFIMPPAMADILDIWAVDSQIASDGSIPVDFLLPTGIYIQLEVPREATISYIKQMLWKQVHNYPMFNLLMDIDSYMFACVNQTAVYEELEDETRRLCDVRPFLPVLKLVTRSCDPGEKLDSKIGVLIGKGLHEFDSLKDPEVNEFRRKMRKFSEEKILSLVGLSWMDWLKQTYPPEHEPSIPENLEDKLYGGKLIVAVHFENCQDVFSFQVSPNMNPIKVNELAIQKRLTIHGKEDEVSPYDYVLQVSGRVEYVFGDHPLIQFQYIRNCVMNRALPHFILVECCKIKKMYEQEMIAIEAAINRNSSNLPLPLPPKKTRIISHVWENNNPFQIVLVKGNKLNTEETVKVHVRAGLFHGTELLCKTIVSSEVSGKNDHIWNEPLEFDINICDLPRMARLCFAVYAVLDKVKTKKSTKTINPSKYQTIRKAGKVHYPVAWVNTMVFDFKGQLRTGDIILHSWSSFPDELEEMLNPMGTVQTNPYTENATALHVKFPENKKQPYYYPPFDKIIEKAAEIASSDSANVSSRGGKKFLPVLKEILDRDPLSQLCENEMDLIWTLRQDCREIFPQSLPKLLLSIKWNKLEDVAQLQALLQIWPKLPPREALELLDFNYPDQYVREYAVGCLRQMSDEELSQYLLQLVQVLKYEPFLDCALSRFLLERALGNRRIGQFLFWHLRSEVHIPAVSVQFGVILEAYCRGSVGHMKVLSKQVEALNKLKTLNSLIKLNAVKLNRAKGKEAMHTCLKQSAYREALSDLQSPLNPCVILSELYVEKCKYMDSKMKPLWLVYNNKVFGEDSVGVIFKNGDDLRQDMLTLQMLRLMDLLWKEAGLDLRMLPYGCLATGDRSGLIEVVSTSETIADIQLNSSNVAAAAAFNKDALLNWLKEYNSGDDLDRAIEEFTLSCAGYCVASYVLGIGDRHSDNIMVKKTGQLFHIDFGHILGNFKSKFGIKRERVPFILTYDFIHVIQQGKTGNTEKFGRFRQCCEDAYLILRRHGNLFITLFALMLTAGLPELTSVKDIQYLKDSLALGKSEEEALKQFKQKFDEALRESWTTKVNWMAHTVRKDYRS
Chain of PI3K β (P27986 whole entry partner): as the sequence (P27986 whole entry partner) above

Turning to `CN1CCN(c2cnc3ccc(-c4ccc5nc(N)sc5c4)cc3n2)CC1`, the IC50 was > 10000 nM against PI3K δ, < 10000 nM at PI3K γ (read-out: PI3K γ IC50), < 100 nM on PI3K α and < 100 nM against PI3K β.
As to `Nc1nc2cc(-c3ccc4ncc(-c5cccnc5)n4c3)ccc2o1` [Compound 37], the IC50 against PI3K δ, on PI3K γ (read-out: PI3K γ IC50) and on PI3K α was < 100 nM throughout.
Turning to `Nc1nc2cc(-c3ccc4ncc(C(=O)N5CCCC5)n4c3)ccc2o1`, the IC50 on PI3K δ was < 1000 nM; on PI3K γ (read-out: PI3K γ IC50), < 100 nM; at PI3K α, < 100 nM; against PI3K β it was < 10000 nM.
Take `Nc1nc2cc(-c3ccc4ncc(N5CCCCC5)nc4c3)ccc2o1`: the IC50 was > 10000 nM against PI3K δ, < 10000 nM at PI3K γ (read-out: PI3K γ IC50), < 100 nM against PI3K α and > 10000 nM against PI3K β.
Regarding `CN1CCN(c2cc(-c3ccnc4ccc(-c5ccc6oc(N)nc6c5)cc34)ccn2)CC1` [Compound 30], the IC50 on PI3K δ, at PI3K γ (read-out: PI3K γ IC50) and at PI3K α was < 100 nM throughout.
On to `Nc1nc2cc(-c3ccc4nccc(NC5CCOCC5)c4c3)ccc2o1` [Compound 32], for which the figures for the IC50 on PI3K δ, at PI3K γ (read-out: PI3K γ IC50) and at PI3K α were > 10000 nM, < 10000 nM and < 10000 nM, respectively.
With `Nc1nc2cc(-c3ccc4ncc(C#CC5CC5)n4c3)ccc2o1` [Compound 39], the IC50 against PI3K δ, on PI3K γ (read-out: PI3K γ IC50) and against PI3K α was < 100 nM in each case.
As for `CN1CCN(c2cc(-c3cnc4ccc(-c5ccc6oc(N)nc6c5)cn34)ccn2)CC1` [Compound 43], the IC50 on PI3K δ, on PI3K γ (read-out: PI3K γ IC50) and against PI3K α was < 100 nM in each case.
On to `Nc1nc2cc(-c3ccc4nccc(CCN5CCOCC5)c4c3)ccc2o1` [Compound 27], for which the IC50 against PI3K δ was < 10000 nM; on PI3K γ (read-out: PI3K γ IC50) it was < 100 nM; at PI3K α, < 1000 nM.
Consider `Nc1nc2cc(-c3ccc4ncnc(N5CCC(O)CC5)c4c3)ccc2o1` [Compound 29], for which the IC50 at PI3K δ, on PI3K γ (read-out: PI3K γ IC50) and at PI3K α was < 100 nM each time.
`Nc1nc2cc(-c3ccc4nccc(-c5cn[nH]c5)c4c3)ccc2o1` [Compound 20]: the IC50 against PI3K δ, against PI3K α and against PI3K β was < 100 nM in each case.
As for `Nc1nc2cccc(-c3ccc4nccc(-c5ccncc5)c4c3)c2s1` [Compound 17], the values for the IC50 at PI3K δ, on PI3K γ (read-out: PI3K γ IC50) and on PI3K β were < 1000 nM, < 100 nM and < 1000 nM, respectively.
`Nc1nc2cc(-c3ccc4nccc(N5CCOCC5)c4c3)ccc2o1` [Compound 28]: the figures for the IC50 against PI3K δ, on PI3K γ (read-out: PI3K γ IC50) and against PI3K α were < 1000 nM, < 100 nM and < 100 nM, respectively.
Take `Nc1nc2cc(-c3ccc4nccc(NCCN5CCOCC5)c4c3)ccc2o1` [Compound 33]: the IC50 against PI3K δ is < 1000 nM; at PI3K γ (read-out: PI3K γ IC50), < 1000 nM; against PI3K α it was < 100 nM.
Take `CN1CCC(Oc2ncnc3ccc(-c4ccc5oc(N)nc5c4)cc23)CC1` [Compound 34]: the IC50 against PI3K δ was < 1000 nM; on PI3K γ (read-out: PI3K γ IC50) it was < 100 nM; on PI3K α, < 100 nM.
Take `COc1ncc(-c2ccc3ncc(C(=O)N4CCOCC4)n3c2)cc1N`: the IC50 in assay [1] was > 10000 nM; at PI3K γ (read-out: PI3K δ IC50), > 10000 nM; at PI3K α, < 10000 nM; against PI3K β, > 10000 nM.
Turning to `CC(=O)N1CCC(n2cnc3ccc(-c4ccc5oc(N)nc5c4)cc3c2=O)CC1`, the IC50 at PI3K δ is > 10000 nM; on PI3K γ (read-out: PI3K γ IC50), > 10000 nM; against PI3K α, < 10000 nM.
For `Nc1nc2cc(-c3ccc4ncc(N5CC(C(=O)NC6CC6)C5)nc4c3)ccc2o1`, the IC50 was < 10000 nM in assay [1], < 1000 nM on PI3K γ (read-out: PI3K δ IC50), < 100 nM against PI3K α and < 1000 nM against PI3K β.
As to `CC(=O)Nc1nc2cc(-c3ccc4oc(N)nc4c3)ccc2o1`, the IC50 (in assay [1]; on PI3K γ (read-out: PI3K δ IC50); at PI3K α; against PI3K β) was > 10000 nM in each case.
For the compound `Nc1nc2cc(-c3ccc4ncc(C(=O)N5CC6(C5)OCCO6)n4c3)ccc2o1`, the IC50 in assay [1] was > 10000 nM; at PI3K γ (read-out: PI3K δ IC50) it was < 1000 nM; against PI3K α, < 100 nM; on PI3K β, < 10000 nM.
`Nc1nc2cccc(-c3ccc4ncc(C(=O)N5CCOCC5)n4c3)c2o1`: the IC50 in assay [1] is > 10000 nM; at PI3K γ (read-out: PI3K δ IC50), > 10000 nM; against PI3K α it was < 1000 nM; on PI3K β it was > 10000 nM.
Regarding `Nc1nc2cc(-c3ccn4ncc(C(=O)N5CCCC5)c4c3)ccc2o1`, the IC50 in assay [1] was > 10000 nM; on PI3K γ (read-out: PI3K δ IC50), < 1000 nM; against PI3K α, < 100 nM; against PI3K β, < 10000 nM.
Consider `Nc1nc2cc(-c3ccc4ncn(CCCN5CCOCC5)c(=O)c4c3)ccc2o1`, for which the IC50 in assay [1] is > 10000 nM; at PI3K γ (read-out: PI3K δ IC50) it was > 10000 nM; against PI3K α it was < 1000 nM; on PI3K β it was > 10000 nM.
Consider `Nc1nc2cc(-c3ccc4sc(N)nc4c3)ccc2o1`, for which the IC50 in assay [1] is < 10000 nM; at PI3K γ (read-out: PI3K δ IC50) it was < 1000 nM; against PI3K α, < 10000 nM; against PI3K β, < 1000 nM.
Regarding `C[C@H]1CN(c2nc3cc(-c4ccc5oc(N)nc5c4)ccc3nc2N)CCN1`, the IC50 is > 10000 nM in assay [1], > 10000 nM at PI3K γ (read-out: PI3K δ IC50), < 10000 nM against PI3K α and > 10000 nM against PI3K β.
As to `Nc1nc2cc(-c3ccc4ncc(N5CCN(C6CC6)CC5)nc4c3)ccc2o1`, the IC50 in assay [1] was > 10000 nM; at PI3K γ (read-out: PI3K δ IC50) it was < 1000 nM; on PI3K α it was < 100 nM; against PI3K β, < 1000 nM.
With `Nc1nc2cc(-c3ccc4ncc(C(=O)N5CCC(F)CC5)n4c3)ccc2o1`, the IC50 in assay [1] is > 10000 nM; at PI3K γ (read-out: PI3K δ IC50), < 100 nM; on PI3K α it was < 1000 nM; at PI3K β, > 10000 nM.
As for `CC(C)N1CCN(c2cnc3ccc(-c4ccc5oc(N)nc5c4)cc3n2)C(=O)C1`, the IC50 (in assay [1]; at PI3K γ (read-out: PI3K δ IC50); at PI3K α; against PI3K β) was > 10000 nM in each case.
For `O=C(c1cnc2ccc(-c3cnc(Cl)c(NS(=O)(=O)c4ccccc4)c3)cn12)N1CCOCC1`, the IC50 was < 100 nM in assay [1], < 100 nM on PI3K γ (read-out: PI3K δ IC50), < 100 nM against PI3K α and < 1000 nM against PI3K β.
With `CCN(CC)CCNc1cnc2ccc(-c3ccc4oc(N)nc4c3)cc2n1`, the IC50 in assay [1] was < 1000 nM; on PI3K γ (read-out: PI3K δ IC50), < 10000 nM; against PI3K α it was < 1000 nM; at PI3K β, < 1000 nM.
Take `CC(=O)Nc1nc(C)c(-c2ccc3oc(N)nc3c2)s1`: the IC50 is < 1000 nM in assay [1], < 100 nM at PI3K γ (read-out: PI3K δ IC50), < 1000 nM at PI3K α and < 10000 nM on PI3K β.
`Nc1nc2cc(-c3ccc4ncc(N5CCn6cncc6C5)nc4c3)ccc2o1`: the IC50 was < 1000 nM in assay [1], < 100 nM on PI3K γ (read-out: PI3K δ IC50), < 100 nM against PI3K α and < 100 nM at PI3K β.
As for `Nc1nc2ccc(-c3ccc4nnc(-c5cccnc5)n4c3)cc2o1`, the IC50 in assay [1] is > 10000 nM; at PI3K γ (read-out: PI3K δ IC50) it was > 10000 nM; against PI3K α, < 10000 nM; against PI3K β, < 10000 nM.
With `Nc1nc2cc(-c3ccc4ncc(N5CC(C(=O)N6CCOCC6)C5)nc4c3)ccc2o1` [drawing 442], the IC50 in assay [1] was < 10000 nM; at PI3K γ (read-out: PI3K δ IC50), < 10000 nM; against PI3K α it was > 10000 nM; on PI3K β, < 10000 nM.
Turning to `Nc1nc2cc(-c3ccn4ncc(-c5ccncc5)c4c3)ccc2o1`, the IC50 (in assay [1]; at PI3K γ (read-out: PI3K δ IC50); against PI3K α; against PI3K β) was < 100 nM throughout.
In the case of `Nc1nc2cc(-c3ccc4ncc(-c5cn[nH]c5)n4c3)ccc2o1` [Compound 38], the IC50 on PI3K δ, at PI3K γ (read-out: PI3K γ IC50) and on PI3K α was < 100 nM each time.
`Nc1nc2cc(-c3ccc4nccc(-c5cccnc5)c4c3)ccc2o1` [Compound 31]: the IC50 on PI3K δ, at PI3K γ (read-out: PI3K γ IC50) and at PI3K α was < 100 nM each time.
Take `CC1(C)COCCN1C(=O)c1cnc2ccc(-c3ccc4oc(N)nc4c3)cn12`: the IC50 in assay [1] was > 10000 nM; at PI3K γ (read-out: PI3K δ IC50), > 10000 nM; on PI3K α, < 1000 nM; against PI3K β, > 10000 nM.
Consider `Nc1nc2cc(-c3ccc4nc(N)sc4c3)cc(F)c2o1`, for which the IC50 was < 1000 nM in assay [1], < 100 nM on PI3K γ (read-out: PI3K δ IC50), < 100 nM against PI3K α and < 100 nM against PI3K β.
Take `O=C(c1cnc2ccc(-c3ccc4oc(NC5CC5)nc4c3)cn12)N1CCOCC1`: the IC50 was > 10000 nM in assay [1], > 10000 nM on PI3K γ (read-out: PI3K δ IC50), < 10000 nM against PI3K α and > 10000 nM against PI3K β.
With `O=C(c1cnc2ccc(-c3cccc(NS(=O)(=O)c4ccc(F)cc4F)c3)cn12)N1CCOCC1`, the IC50 in assay [1] was < 10000 nM; on PI3K γ (read-out: PI3K δ IC50) it was < 10000 nM; against PI3K α, < 10000 nM; against PI3K β, > 10000 nM.
In the case of `Nc1nc2cc(-c3ccc4ncc(NCCCN5CCOCC5)nc4c3)ccc2o1`, the IC50 in assay [1] is < 100 nM; on PI3K γ (read-out: PI3K δ IC50), < 1000 nM; against PI3K α it was < 100 nM; against PI3K β, < 1000 nM.
`Nc1nc2cc(-c3ccc4ncn(C5CCC5)c(=O)c4c3)ccc2o1`: the IC50 was > 10000 nM in assay [1], > 10000 nM on PI3K γ (read-out: PI3K δ IC50), < 100 nM at PI3K α and > 10000 nM on PI3K β.
As to `Nc1nc2cc(-c3ccc4ncc(C(=O)N5CCOCC5)n4c3)cc(Cl)c2o1`, the IC50 was < 10000 nM in assay [1], < 100 nM on PI3K γ (read-out: PI3K δ IC50), < 100 nM on PI3K α and < 1000 nM against PI3K β.
As to `Nc1nc2cc(-c3ccc4ncc(C(=O)N5CC(N6CCC(F)(F)C6)C5)n4c3)ccc2o1`, the IC50 in assay [1] is < 10000 nM; on PI3K γ (read-out: PI3K δ IC50), < 1000 nM; on PI3K α, < 100 nM; against PI3K β it was > 10000 nM.
Consider `Nc1ncc(-c2ccc3ncc(C(=O)N4CCOCC4)n3c2)cc1C(F)(F)F`, for which the IC50 was > 10000 nM in assay [1], > 10000 nM at PI3K γ (read-out: PI3K δ IC50), < 10000 nM on PI3K α and > 10000 nM against PI3K β.
